Measured values taken from US20060025390A1, “Treatment of hormone allergy and related symptoms and disorders” (priority 2004, published 2006).

What was measured:
[1] = test system: serum IgM anti-estrogen antibodies; assay: ELISA binding of IgM estrogen antibodies to different hormones in solid phase; set-up: species or system human; settings: for IgM binding (optical density): hormone in solid phase, 405 nm; for IgM % reaction: relative to estrogen = 100
Method: (§1) The ELISA inhibition method was used to determine specificity and cross-reactivity between different hormones and to ensure the degree of human IgG, IgM and IgE estrogen or progesterone binding to estrogen or progesterone in solid phase. […] 100 μl of sera from three different patients with high IgG, IgM or IgE antibodies against 17-α-hydroxyprogesterone was added to all wells. After shaking and incubation for 1 hr at room temperature, addition of enzyme labeled anti-human IgG, IgM or IgE, repeat of incubation, washing, and addition of substrate, color development was measured at 405 nm. Results were calculated as percentage of anti-17-α-hydroxyprogesterone binding to 17-α-hydroxyprogesterone and other hormones. Also, anti-estrogen binding to estrogen and other hormones in solid phase by progesterone in liquid phase was performed and calculated in a similar manner.
(§2) Human sera containing 17-α-hydroxyprogesterone IgG-, IgM- and IgE-binding antibodies were reacted against progesterone, estrogen, hydrocortisone and cholesterol. In comparison to 100% binding of anti-17-α-hydroxyprogesterone-binding to 17-α-hydroxyprogesterone, the IgG anti-17-α-hydroxyprogesterone-binding to progesterone, estrogen, hydrocortisone and cholesterol was 69-77%, 25-30%, 39-53%, and less than 10% respectively (Table 4). The % binding of serum IgM and IgE anti-17-α-hydroxyprogesterone to 17-1-hydroxyprogesterone, progesterone, estrogen, hydrocortisone and cholesterol was similar to the binding of IgG. This binding of anti-17-α-hydroxyprogesterone to progesterone was the highest, followed by hydrocortisone, then estrogen, to almost no binding with cholesterol. Similar to this, human sera with IgG, IgM and IgE binding antibodies against estrogen were reacted with progesterone, 17-α-hydroxyprogesterone, hydrocortisone and cholesterol, in the presence of estrogen.

[2] = test system: patients experiencing hormone allergy symptoms; assay: Clinical responses of hormone allergy symptoms to intradermal dilute progesterone (or estrogen); type: in vivo, human; settings: for % of Patients who Respond: any relief of symptom; for % Improvement in Responding Patients: average of patients' estimates
Text: Patients experiencing several hormone allergy symptoms experienced relief when administered dilute doses of progesterone either sublingually or intradermally.
The symptoms measured were irritation or pain in the neck, nose, eyes, throat, ear, skin, back, hips, upper extremities and lower extremities, headache, and shortness of breath. […]
Patients were designated as responding patients in Table 1 if they experienced any relief of the indicated symptom. Patients were also asked to estimate the amount of improvement in the symptom, an average of which is
In Table 2 the probability that positive results (i.e. patients responding to treatment) were due to random effects was calculated using standard statistical analysis of patient tests. It was assumed that if the treatment has no effect, there is a 50% chance that a patient will indicate a positive response and a 50% chance that a patient will indicate a negative response. From this assumption, coupled with the actual data, one may calculate the probability that positive responses are due to an actual effect of the treatment and not simply random effects. In general, results with a less than 1% chance of being random are considered highly significant. Results with a less than 5% chance of being random are normally conclusively labeled as nonrandom. Thus, the results observed for most of the symptoms in Table 2 are highly significant, with only the results for ear irritation and pain falling merely in the nonrandom category.
Hormone samples may be prepared in any way suitable for the intended administration route. For administration through intradermal injection, samples may be prepared as they were in the studies of Examples 2 and 3. Specifically, the progesterone was formulated from commercially available injectable progesterone. Each ml of the final formulation contained […] of progesterone and 10% benzyl alcohol as a preservative in sesame oil. 0.1 ml was administered per patient intradermally. Estrogen samples were similarly prepared.

[3] = test system: serum IgE anti-17-α-hydroxyprogesterone antibodies; assay: ELISA binding of IgE 17-α-hydroxyprogesterone antibodies to different hormones in solid phase; set-up: species or system human; settings: for IgE binding (optical density): hormone in solid phase, 405 nm; for IgE % reaction: relative to 17-α-hydroxyprogesterone = 100
Method: as §1, §2

[4] = Back, of 58 patients with symptom (Table 2)
[5] = Ear, of 35 patients with symptom (Table 2)
[6] = Eyes, of 94 patients with symptom (Table 2)
[7] = Headache, of 105 patients with symptom (Table 2)
[8] = Hips, of 26 patients with symptom (Table 2)
[9] = Lower Extremity, 0.5 mg intradermally
[10] = Lower Extremity, of 51 patients with symptom (Table 2)
[11] = Neck, of 146 patients with symptom (Table 2)
[12] = Nose, of 112 patients with symptom (Table 2)
[13] = Shortness of Breath, 0.5 mg intradermally
[14] = Shortness of Breath, of 144 patients with symptom (Table 2)
[15] = Skin, of 35 patients with symptom (Table 2)
[16] = Throat, of 94 patients with symptom (Table 2)
[17] = Upper Extremity, 0.5 mg intradermally
[18] = Upper Extremity, of 63 patients with symptom (Table 2)

Question: How did the “IgM binding (optical density)” value ([1]; sample 1) turn out when `CC(=O)[C@H]1CC[C@H]2[C@@H]3CCC4=CC(=O)CC[C@]4(C)[C@H]3CC[C@]12C` [Progesterone, progesterone] was run?
Answer: The value was 0.26.

Question: And the IgM % reaction ([1]; sample 1)?
Answer: Its IgM % reaction is −29%.

Question: And the “IgM binding (optical density)” value ([1]; sample 2)?
Answer: The value was 0.65.

Question: And the IgM % reaction ([1]; sample 2)?
Answer: The IgM % reaction was −31%.

Question: And the “IgM binding (optical density)” value ([1]; sample 3)?
Answer: Its value is 0.44.

Question: What about the IgM % reaction ([1]; sample 3) of the same compound?
Answer: The IgM % reaction was −34%.

Question: And the “% of Patients who Respond” value ([2]; Back, 0.5 mg intradermally)?
Answer: Its value is 82%.

Question: And the “% Improvement in Responding Patients” value ([2]; Back, 0.5 mg intradermally)?
Answer: Its value is 72%.

Question: And the “# of Responding Patients” value ([2]; Back, 0.5 mg intradermally, of 57 patients (Table 1))?
Answer: The value was 47.

Question: What about the “# of Responding Patients” value [2, 4] of the same compound?
Answer: The value was 48.

Question: What about the “# of non-Responding Patients” value [2, 4] of the same compound?
Answer: Its value is 10.

Question: And the “% of Patients who Respond” value ([2]; Ear, 0.5 mg intradermally)?
Answer: The value was 66%.

Question: And the “% Improvement in Responding Patients” value ([2]; Ear, 0.5 mg intradermally)?
Answer: The value was 25%.

Question: And the “# of Responding Patients” value ([2]; Ear, 0.5 mg intradermally, of 35 patients (Table 1))?
Answer: Its value is 23.

Question: And the “# of Responding Patients” value [2, 5]?
Answer: Its value is 23.

Question: And the “# of non-Responding Patients” value [2, 5]?
Answer: The value was 12.

Question: What about the “% of Patients who Respond” value ([2]; Eyes, 0.5 mg intradermally) of the same compound?
Answer: The value was 81%.

Question: And the “% Improvement in Responding Patients” value ([2]; Eyes, 0.5 mg intradermally)?
Answer: Its value is 57%.

Question: And the “# of Responding Patients” value ([2]; Eyes, 0.5 mg intradermally, of 90 patients (Table 1))?
Answer: Its value is 73.

Question: And the “# of Responding Patients” value [2, 6]?
Answer: Its value is 75.

Question: And the “# of non-Responding Patients” value [2, 6]?
Answer: The value was 19.

Question: And the “% of Patients who Respond” value ([2]; Headache, 0.5 mg intradermally)?
Answer: The value was 82%.

Question: What about the “% Improvement in Responding Patients” value ([2]; Headache, 0.5 mg intradermally) of the same compound?
Answer: The value was 69%.

Question: What about the “# of Responding Patients” value ([2]; Headache, 0.5 mg intradermally, of 103 patients (Table 1)) of the same compound?
Answer: Its value is 84.

Question: What about the “# of Responding Patients” value [2, 7] of the same compound?
Answer: The value was 85.

Question: And the “# of non-Responding Patients” value [2, 7]?
Answer: Its value is 20.

Question: And the “% of Patients who Respond” value ([2]; Hips, 0.5 mg intradermally)?
Answer: The value was 92%.

Question: And the “% Improvement in Responding Patients” value ([2]; Hips, 0.5 mg intradermally)?
Answer: Its value is 79%.

Question: And the “# of Responding Patients” value ([2]; Hips, 0.5 mg intradermally, of 26 patients (Table 1))?
Answer: The value was 24.

Question: And the “# of Responding Patients” value [2, 8]?
Answer: Its value is 24.

Question: And the “# of non-Responding Patients” value [2, 8]?
Answer: The value was 2.

Question: And the “% of Patients who Respond” value [2, 9]?
Answer: Its value is 79%.

Question: What about the “% Improvement in Responding Patients” value [2, 9] of the same compound?
Answer: The value was 76%.

Question: And the “# of Responding Patients” value ([2]; Lower Extremity, 0.5 mg intradermally, of 61 patients (Table 1))?
Answer: Its value is 48.

Question: And the “# of Responding Patients” value [2, 10]?
Answer: The value was 43.

Question: What about the “# of non-Responding Patients” value [2, 10] of the same compound?
Answer: Its value is 8.

Question: What about the “% of Patients who Respond” value ([2]; Neck, 0.5 mg intradermally) of the same compound?
Answer: Its value is 72%.

Question: What about the “% Improvement in Responding Patients” value ([2]; Neck, 0.5 mg intradermally) of the same compound?
Answer: The value was 62%.

Question: What about the “# of Responding Patients” value ([2]; Neck, 0.5 mg intradermally, of 144 patients (Table 1)) of the same compound?
Answer: Its value is 104.

Question: And the “# of Responding Patients” value [2, 11]?
Answer: Its value is 106.

Question: What about the “# of non-Responding Patients” value [2, 11] of the same compound?
Answer: The value was 40.

Question: And the “% of Patients who Respond” value ([2]; Nose, 0.5 mg intradermally)?
Answer: The value was 82%.

Question: And the “% Improvement in Responding Patients” value ([2]; Nose, 0.5 mg intradermally)?
Answer: Its value is 63%.

Question: What about the “# of Responding Patients” value ([2]; Nose, 0.5 mg intradermally, of 109 patients (Table 1)) of the same compound?
Answer: Its value is 89.

Question: What about the “# of Responding Patients” value [2, 12] of the same compound?
Answer: The value was 92.

Question: And the “# of non-Responding Patients” value [2, 12]?
Answer: Its value is 20.

Question: And the “% of Patients who Respond” value [2, 13]?
Answer: The value was 87%.

Question: And the “% Improvement in Responding Patients” value [2, 13]?
Answer: The value was 67%.

Question: What about the “# of Responding Patients” value ([2]; Shortness of Breath, 0.5 mg intradermally, of 142 patients (Table 1)) of the same compound?
Answer: Its value is 124.

Question: What about the “# of Responding Patients” value [2, 14] of the same compound?
Answer: Its value is 126.

Question: And the “# of non-Responding Patients” value [2, 14]?
Answer: The value was 18.

Question: What about the “% of Patients who Respond” value ([2]; Skin, 0.5 mg intradermally) of the same compound?
Answer: The value was 79%.

Question: And the “% Improvement in Responding Patients” value ([2]; Skin, 0.5 mg intradermally)?
Answer: The value was 74%.

Question: What about the “# of Responding Patients” value ([2]; Skin, 0.5 mg intradermally, of 34 patients (Table 1)) of the same compound?
Answer: The value was 27.

Question: What about the “# of Responding Patients” value [2, 15] of the same compound?
Answer: The value was 27.

Question: And the “# of non-Responding Patients” value [2, 15]?
Answer: The value was 8.

Question: What about the “% of Patients who Respond” value ([2]; Throat, 0.5 mg intradermally) of the same compound?
Answer: Its value is 76%.

Question: And the “% Improvement in Responding Patients” value ([2]; Throat, 0.5 mg intradermally)?
Answer: The value was 64%.

Question: What about the “# of Responding Patients” value ([2]; Throat, 0.5 mg intradermally, of 92 patients (Table 1)) of the same compound?
Answer: Its value is 70.

Question: And the “# of Responding Patients” value [2, 16]?
Answer: The value was 71.

Question: What about the “# of non-Responding Patients” value [2, 16] of the same compound?
Answer: The value was 23.

Question: And the “% of Patients who Respond” value [2, 17]?
Answer: Its value is 80%.

Question: And the “% Improvement in Responding Patients” value [2, 17]?
Answer: Its value is 75%.

Question: What about the “# of Responding Patients” value ([2]; Upper Extremity, 0.5 mg intradermally, of 50 patients (Table 1)) of the same compound?
Answer: Its value is 40.

Question: And the “# of Responding Patients” value [2, 18]?
Answer: Its value is 50.

Question: And the “# of non-Responding Patients” value [2, 18]?
Answer: Its value is 13.

Question: What about the “effectiveness in relieving hormone allergy symptoms compared to several other antigens” value ([2]; dilute doses sublingually or intradermally) of the same compound?
Answer: Its value is “most effective”.

Question: What about the “IgE binding (optical density)” value ([3]; sample 1) of the same compound?
Answer: The value was 0.94.

Question: And the IgE % reaction ([3]; sample 1)?
Answer: The IgE % reaction was −65%.

Question: And the “IgE binding (optical density)” value ([3]; sample 2)?
Answer: The value was 1.7.

Question: What about the IgE % reaction ([3]; sample 2) of the same compound?
Answer: The IgE % reaction was −71%.

Question: What about the “IgE binding (optical density)” value ([3]; sample 3) of the same compound?
Answer: The value was 0.82.

Question: What about the IgE % reaction ([3]; sample 3) of the same compound?
Answer: The IgE % reaction was −77%.
